These compounds were tested against T1, TDO2 (Homo sapiens, UniProt P48775) (assay: TDO2 cell assay (NFK GreenScreen, SW48 cells)). Settings: SW48 cells (high TDO expressing), 200 uM tryptophan, 24 hours; Table 3; read-out: TDO2 Cell Fluor EC50.
T1 construct: decreased levels of NFK in SW48 cells (high TDO expressing cells)
Assay type: cell-based

T1 sequence (P48775 whole entry): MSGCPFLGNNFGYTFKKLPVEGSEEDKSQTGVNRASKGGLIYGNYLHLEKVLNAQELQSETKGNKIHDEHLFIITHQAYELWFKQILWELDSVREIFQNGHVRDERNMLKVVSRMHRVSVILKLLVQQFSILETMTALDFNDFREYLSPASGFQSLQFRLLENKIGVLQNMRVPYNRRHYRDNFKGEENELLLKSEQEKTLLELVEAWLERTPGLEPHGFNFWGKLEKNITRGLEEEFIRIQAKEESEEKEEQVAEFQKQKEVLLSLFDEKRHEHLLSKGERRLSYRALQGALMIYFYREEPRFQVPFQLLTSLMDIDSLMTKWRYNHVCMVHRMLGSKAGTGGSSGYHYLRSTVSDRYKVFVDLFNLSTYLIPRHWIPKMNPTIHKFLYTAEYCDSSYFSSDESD

Row | SMILES | EC50 [µM]
1 | NS(=O)(=O)N1CCC2(CC1)CC(C1c3ccccc3-c3cncn31)C2O (single isomer, unassigned) [Example 181a] | 0.66
2 | NS(=O)(=O)N1CCC2(CCC(C3c4ccccc4-c4cncn43)C2O)CC1 (single isomer, unassigned) [Example 182c] | 4.6
3 | O[C@@H]1CCOC[C@H]1[C@H]1c2ccc(F)cc2-c2cncn21 (single isomer, unassigned) [Example 34b] | > 25
4 | CS(=O)(=O)N1CCC2(CCC(C3c4ccccc4-c4cncn43)C2O)CC1 (single isomer, unassigned) [Example 180b] | > 25
5 | NC(=O)C1CCC(O)(C2c3ccccc3-c3cncn32)CC1 (single isomer, unassigned) [Example 140d] | 3.5
6 | CS(=O)(=O)N1CCC2(CC1)CC(C1c3ccccc3-c3cncn31)C2O (single isomer, unassigned) [Example 179f] | 0.12
7 | CS(=O)(=O)c1ccc2c(c1)[C@@H](O)[C@H]([C@H]1c3ccccc3-c3cncn31)CC2 (single isomer, unassigned) [Example 142b] | 5.9
8 | O[C@@H](C1CCOCC1)[C@@H]1c2ccccc2-c2cncn21 (single isomer, unassigned) [Example 138d] | 10
9 | OC1c2cnccc2CC1C1c2ccccc2-c2cncn21 (single isomer, unassigned) [Example 71a] | 17
10 | OC1CCOCC1C1c2cccc(F)c2-c2cncn21 (single isomer, unassigned) [Example 170b] | 2.1
11 | OC1CC2(CC2)C1C1c2ccccc2-c2cncn21 (single isomer, unassigned) [Example 72d] | 9
12 | OC1c2cncn2CCC1C1c2ccccc2-c2cncn21 (single isomer, unassigned) [Example 07b] | > 25
13 | CS(=O)(=O)N1CCC2(CCC(C3c4ccccc4-c4cncn43)C2O)CC1 (single isomer, unassigned) [Example 180c] | 0.098
14 | CC(C)[C@@H](O)[C@H]1c2ccc(F)cc2-c2cncn21 [Example 135b, (R)-1-((R)-8-fluoro-5H-imidazo[5,1-a]isoindol-5-yl)-2-methylpropan-1-ol] | > 25
15 | OC1c2ccnn2CCCC1C1c2ccccc2-c2cncn21 (single isomer, unassigned) [Example 133a] | > 25
16 | OC1c2cncnc2CCC1C1c2ccccc2-c2cncn21 (single isomer, unassigned) [Example 94b] | 3.1
17 | NS(=O)(=O)c1ccc2c(c1)CCC(C1c3ccccc3-c3cncn31)C2O (single isomer, unassigned) [Example 100a] | 0.12
18 | OC1C(C2c3ccccc3-c3cncn32)CCC12CCOCC2 (single isomer, unassigned) [Example 68h] | > 25
19 | CCS(=O)(=O)N1CC(O)(CC2c3ccccc3-c3cncn32)C1 (single isomer, unassigned) [Example 108a] | 2.8
20 | O[C@@H]1c2c(F)cnn2CC[C@@H]1[C@@H]1c2ccccc2-c2cncn21 (single isomer, unassigned) [Example 151b] | > 25
21 | OC1COCCC1C1c2ccc(F)cc2-c2cncn21 (single isomer, unassigned) [Example 33d] | > 25
22 | OC1c2[nH]ncc2CCC1C1c2ccccc2-c2cncn21 (single isomer, unassigned) [Example 157c] | 14
23 | OC1c2nonc2CCC1C1c2ccccc2-c2cncn21 (single isomer, unassigned) [Example 163a] | 0.1
24 | O=c1cccc2n1CCC(C1c3ccccc3-c3cncn31)C2O (single isomer, unassigned) [Example 29a, 1-hydroxy-2-(5H-imidazo[5,1-a]isoindol-5-yl)-3,4-dihydro-1H-quinolizin-6(2H)-one] | > 25
25 | OC1CCC(F)(F)CC1C1c2ccccc2-c2cncn21 (single isomer, unassigned) [Example 18g, 4,4-difluoro-2-(5H-imidazo[5,1-a]isoindol-5-yl)cyclohexan-1-ol] | 0.11
26 | CC1(C)OCC(C2c3ccccc3-c3cncn32)C1O (single isomer, unassigned) [Example 85b] | 0.13
27 | CC1(C)C[C@@H](O)[C@H]1[C@H]1c2ccccc2-c2cncn21 (single isomer, unassigned) [Example 22g] | 0.78
28 | Nc1cc2n(n1)CCC(C1c3ccccc3-c3cncn31)C2O [Example 161d, (4S,5R)-2-amino-5-((S)-5H-imidazo[5,1-a]isoindol-5-yl)-4,5,6,7-tetrahydropyrazolo[1,5-a]pyridin-4-ol] | 12
29 | Nc1cc2n(n1)CCC(C1c3ccccc3-c3cncn31)C2O (single isomer, unassigned) [Example 161h] | 18

More lines, now with the values ahead:

Row | EC50 [µM] | SMILES
30 | > 25 | CS(=O)(=O)N1CCC(O)C(C2c3ccc(F)cc3-c3cncn32)C1 (single isomer, unassigned) [Example 118b]
31 | > 25 | OC1CCCC1C1c2ccccc2-c2cncn21 (single isomer, unassigned) [Example 02h]
32 | 0.15 | NC(=O)c1nc2c(s1)CCC(C1c3ccccc3-c3cncn31)C2O (single isomer, unassigned) [Example 149c]
33 | 0.91 | NC(=O)c1ccc2c(c1)C(O)C(C1c3ccccc3-c3cncn31)CC2 (single isomer, unassigned) [Example 122f]
34 | > 25 | N#Cc1cnn2c1[C@@H](O)[C@H]([C@H]1c3ccccc3-c3cncn31)CC2 (single isomer, unassigned) [Example 156f]
35 | 7.5 | O[C@@H]1CCC(F)(F)C[C@@H]1[C@@H]1c2ccccc2-c2cncn21 [Example 18e, (1R,2R)-4,4-difluoro-2-((R)-5H-imidazo[5,1-a]isoindol-5-yl)cyclohexan-1-ol]
36 | > 25 | CC(C)(C)OC(=O)N1CC[C@H](O)[C@@H]([C@@H]2c3ccccc3-c3cncn32)C1 [Example 11b, (3R,4S)-tert-butyl 4-hydroxy-3-((R)-5H-imidazo[5,1-a]isoindol-5-yl)piperidine-1-carboxylate]
37 | 0.13 | OC1c2cncnc2CCC1C1c2ccccc2-c2cncn21 (single isomer, unassigned) [Example 94d]
38 | 0.24 | OC(C1CC1)C1c2ccccc2-c2cncn21 (single isomer, unassigned) [Example 52a]
39 | > 25 | OC1CC2(COC2)C1C1c2ccccc2-c2cncn21 (single isomer, unassigned) [Example 87d]
40 | 14 | O[C@H](C1CCCCC1)[C@@H]1c2ccccc2-c2cncn21 [Example 148a, (R)-cyclohexyl((S)-5H-imidazo[5,1-a]isoindol-5-yl)methanol]
41 | 16 | Nc1ccc2c(n1)CCC(C1c3ccccc3-c3cncn31)C2O (single isomer, unassigned) [Example 121e]
42 | > 25 | CC(=O)N1CCC(C2c3ccccc3-c3cncn32)C(O)C1 (single isomer, unassigned) [Example 09a, 1-(3-hydroxy-4-(5H-imidazo[5,1-a]isoindol-5-yl)piperidin-1-yl)ethan-1-one]
43 | 1.3 | NS(=O)(=O)c1ccc2c(c1)CCC(C1c3ccccc3-c3cncn31)C2O (single isomer, unassigned) [Example 100e]
44 | 16 | CCS(=O)(=O)N1CC(O)C(C2c3ccccc3-c3cncn32)C1 (single isomer, unassigned) [Example 40b]
45 | > 25 | OC1c2ccnn2CCC1C1c2ccccc2-c2cncn21 (single isomer, unassigned) [Example 56g]

Row | EC50 [µM] | SMILES
46 | 23 | CC(C)(C)OC(=O)N1CC2(CC(C3c4ccccc4-c4cncn43)C2O)C1 (single isomer, unassigned) [Example 41c, tert-butyl 7-hydroxy-6-(5H-imidazo[1,5-b]isoindol-5-yl)-2-azaspiro[3.3]heptane-2-carboxylate]
47 | > 25 | N#CCN1CCC(O)C(C2c3ccccc3-c3cncn32)C1 (single isomer, unassigned) [Example 14d]
48 | > 25 | OC1c2cc(C(F)F)nn2CCC1C1c2ccccc2-c2cncn21 (single isomer, unassigned) [Example 173a]
49 | > 25 | NS(=O)(=O)N1CC(O)C(C2c3ccccc3-c3cncn32)C1 (single isomer, unassigned) [Example 28d]
50 | > 25 | OC1c2cnccc2CC1C1c2ccccc2-c2cncn21 (single isomer, unassigned) [Example 71c]
51 | 0.62 | CC(C)(C)OC(=O)N1CC2(CC(C3c4ccccc4-c4cncn43)C2O)C1 (single isomer, unassigned) [Example 41e, tert-butyl 7-hydroxy-6-(5H-imidazo[1,5-b]isoindol-5-yl)-2-azaspiro[3.3]heptane-2-carboxylate]
52 | 0.65 | OC1CC2(CC2)C1C1c2ccccc2-c2cncn21 (single isomer, unassigned) [Example 72b]
53 | 1.3 | CS(=O)(=O)c1ccc2c(c1)CCC(C1c3ccccc3-c3cncn31)C2O (single isomer, unassigned) [Example 36a]
54 | 0.052 | OC1CC2(CC2)C1C1c2ccccc2-c2cncn21 (single isomer, unassigned) [Example 72e]
55 | > 25 | CC(=O)N1CCC(O)C(C2c3ccccc3-c3cncn32)C1 (single isomer, unassigned) [Example 12b]
56 | 0.07 | OC1CCCC1C1c2ccccc2-c2cncn21 (single isomer, unassigned) [Example 02f]
57 | > 25 | O[C@H]1c2ccnn2CC[C@@H]1[C@@H]1c2ccccc2-c2cncn21 [Example 56d, (4R,5R)-5-((R)-5H-imidazo[5,1-a]isoindol-5-yl)-4,5,6,7-tetrahydropyrazolo[1,5-a]pyridin-4-ol]
58 | > 25 | OC1CCOCC1C1c2cccc(F)c2-c2cncn21 (single isomer, unassigned) [Example 170a]
59 | 0.099 | OC1CCCC1C1c2ccc(F)cc2-c2cncn21 (single isomer, unassigned) [Example 20d]
60 | 17.7 | Cc1ccc2c(c1)-c1cncn1C2C1COCC1O (single isomer, unassigned) [Example 171d]
61 | > 25 | CC1(C)OCC(C2c3ccccc3-c3cncn32)C1O (single isomer, unassigned) [Example 85f]
